{
  "source": "ChEMBL document CHEMBL4196203",
  "about": "“BACE1 Inhibitory Meroterpenoids from Aspergillus terreus” (J Nat Prod, 2018)",
  "data": [
    {"target": "Beta-secretase 1 (Homo sapiens, UniProt P56817)", "sequence (P56817 whole entry)": "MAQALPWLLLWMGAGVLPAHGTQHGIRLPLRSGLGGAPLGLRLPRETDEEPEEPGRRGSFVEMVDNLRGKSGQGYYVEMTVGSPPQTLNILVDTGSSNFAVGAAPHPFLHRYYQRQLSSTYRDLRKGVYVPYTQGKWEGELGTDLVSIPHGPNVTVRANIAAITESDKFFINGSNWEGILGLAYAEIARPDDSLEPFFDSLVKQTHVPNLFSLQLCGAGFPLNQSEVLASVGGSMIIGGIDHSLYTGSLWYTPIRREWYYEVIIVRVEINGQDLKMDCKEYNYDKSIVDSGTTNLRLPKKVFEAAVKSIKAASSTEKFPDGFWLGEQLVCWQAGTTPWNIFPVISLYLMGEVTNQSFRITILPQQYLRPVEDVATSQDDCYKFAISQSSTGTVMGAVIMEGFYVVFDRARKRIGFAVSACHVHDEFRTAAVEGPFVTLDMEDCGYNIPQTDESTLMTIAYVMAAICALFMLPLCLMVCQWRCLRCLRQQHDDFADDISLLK", "assay": "Inhibition of human BACE1 using MOCA-SEV-NL-DAEFR-DNP-RR as substrate measured after 2 hrs by FRET assay", "units": {"IC50": "µM"}, "values": [
      {"smiles": "C=C1C[C@H]2[C@]3(C)CCC(=O)C(C)(C)[C@H]3C(=O)[C@@H](O)[C@]2(C)[C@H]2C(=O)O[C@](C)(C(=O)OCC)C(=O)[C@]12C", "IC50": "> 50"},
      {"smiles": "C=C1C[C@H]2[C@]3(C)CCC(=O)C(C)(C)[C@H]3C(=O)[C@@H](O)[C@]2(C)[C@H]2C(=O)O[C@](C)(C(=O)OC)C(=O)[C@]12C", "IC50": "> 50"},
      {"smiles": "C=C1C[C@H]2[C@]3(C)CCC(=O)C(C)(C)[C@H]3C(=O)C[C@]2(C)[C@@H](C(=O)OC)[C@]1(C)C(=O)[C@](C)(O)C(=O)OC", "IC50": "> 50"},
      {"smiles": "C=C1C[C@H]2[C@]3(C)CCC(=O)C(C)(C)[C@H]3CC[C@]2(C)[C@]2(C(=O)OC)C(=O)[C@@](C)(O)C(=O)[C@]12C", "IC50": "> 50"},
      {"smiles": "C=C1C[C@H]2[C@]3(C)CCC(=O)C(C)(C)[C@@H]3C(=O)[C@@H](O)[C@]2(C)[C@@H](C(=O)OC)[C@]1(C)C(=O)[C@](C)(O)C(=O)OC", "IC50": 31.7},
      {"smiles": "C=C1C[C@@]2(O)[C@]3(C)CCC(=O)C(C)(C)C3=C(O)C(=O)[C@]2(C)[C@H]2C(=O)O[C@](C)(C(=O)OC)C(=O)[C@]12C", "IC50": "> 50"},
      {"smiles": "C=C1C[C@H]2[C@]3(C)CCC(=O)C(C)(C)[C@H]3C(=O)C[C@]2(C)[C@]2(C(=O)OC)C(=O)[C@H](C)OC(=O)[C@]12C", "IC50": "> 50"},
      {"smiles": "C=C1C[C@H]2[C@]3(C)CCC(=O)C(C)(C)[C@@H]3C(=O)[C@@H](O)[C@]2(C)[C@H]2C(=O)O[C@](C)(C(=O)OC)C(=O)[C@]12C", "IC50": 3.32},
      {"smiles": "C=C1[C@@H]2O[C@@]23[C@]2(C)CCC(=O)C(C)(C)C2=C(O)C(=O)[C@]3(C)[C@H]2C(=O)O[C@](C)(C(=O)OC)C(=O)[C@]12C", "IC50": "> 50"},
      {"smiles": "C=C1C[C@H]2[C@]3(C)CCC(=O)C(C)(C)[C@H]3C(=O)[C@@H](O)[C@]2(C)[C@@H](C(=O)OC)[C@]1(C)C(=O)[C@](C)(O)C(=O)OC", "IC50": "> 50"},
      {"smiles": "C=C1C[C@@H]2[C@](C)(C(=O)C(O)=C3C(C)(C)C(=O)CC[C@]32C)[C@H]2C(=O)O[C@](C)(C(=O)OC)C(=O)[C@]12C", "IC50": "> 50"},
      {"smiles": "C=C1C[C@H]2[C@]3(C)CCC(=O)C(C)(C)[C@H]3C(=O)[C@@H](O)[C@]2(C)[C@@H]2C(=O)O[C@](C)(C(=O)OC)C(=O)[C@]12C", "IC50": "> 50"},
      {"smiles": "C=C1C[C@H]2[C@]3(C)CCC(=O)C(C)(C)[C@@H]3C(=O)[C@@H](O)[C@]2(C)[C@H]2C(=O)O[C@@H](C)C(=O)[C@]12C", "IC50": 5.85},
      {"smiles": "C=C1C[C@@H]2[C@](C)(C(=O)C(O)=C3C(C)(C)C(=O)CC[C@]32C)[C@@H](C(=O)OC)[C@]1(C)C(=O)[C@](C)(O)C(=O)OC", "IC50": "> 50"},
      {"smiles": "C=C1C[C@H]2[C@]3(C)CCC(=O)C(C)(C)[C@H]3C(=O)[C@@H](O)[C@]2(C)[C@H]2C(=O)O[C@@H](C)C(=O)[C@]12C", "IC50": "> 50"},
      {"smiles": "C=C1C[C@H]2[C@]3(C)CC[C@@H](O)C(C)(C)[C@H]3C(=O)[C@@H](O)[C@]2(C)[C@@H](C(=O)OC)[C@]1(C)C(=O)[C@](C)(O)C(=O)OC", "IC50": "> 50"}
    ]}
  ]
}
